Experimental data taken from ChEMBL document CHEMBL1201862, “PubChem BioAssay data set” (2004).
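Values below derive from 48-hour exposures of cells grown in 96-well plates, with endpoints linearly interpolated between the two concentrations bracketing the appropriate inhibition level. Here, GI50 denotes the concentration required for 50% inhibition of growth.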 The source made the active and inactive calls. Rule as the data show it: active = GI50 up to about 1.1 µM and inactive = higher. Non-standard residues stand in square brackets, D forms with d. Residues, ends and D or L forms follow the SMILES beside them. ξ: configuration not given here. *: point of attachment. Cbz = O=C(OCc1ccccc1)*; ξK = NCCCCC(N)C(=O)O

How the values were obtained:
Test in all cases: inhibition of tumour cell growth, NCI panel, 48 h
[1] = test system: HL-60
[2] = test system: OVCAR-4
[3] = test system: COLO 205
[4] = test system: SK-OV-3
[5] = test system: SR
[6] = test system: MDA-N
[7] = test system: RPMI-8226
[8] = test system: A549
[9] = test system: EKVX
[10] = test system: MOLT-4
[11] = test system: HOP-62
[12] = test system: HCT-116
[13] = test system: UACC-257
[14] = test system: SF-268
[15] = test system: CCRF-CEM
[16] = test system: SK-MEL-2
[17] = test system: SK-MEL-28
[18] = test system: OVCAR-8
[19] = test system: BT-549

SMILES	GI50 [1]	GI50 [2]	GI50 [3]	GI50 [4]	GI50 [5]	GI50 [6]	GI50 [7]	GI50 [8]	GI50 [9]	GI50 [10]	GI50 [11]	GI50 [12]	GI50 [13]	GI50 [14]	GI50 [15]	GI50 [16]	GI50 [17]	GI50 [18]	GI50 [19]
CC(C)(C)OC(=O)n1cc(C2CNC(=O)C23CCC(=O)N3Cc2ccccc2)c2ccccc21 (stereo not given)	28.1 µM (inactive)	18.7 µM (inactive)	15.8 µM (inactive)	26.2 µM (inactive)	32.4 µM (inactive)	28.2 µM (inactive)	18.7 µM (inactive)	18.7 µM (inactive)	22.4 µM (inactive)	36.9 µM (inactive)	24.8 µM (inactive)	32.7 µM (inactive)	27 µM (inactive)	31.6 µM (inactive)	25.9 µM (inactive)	17.2 µM (inactive)	–	–	–
COC(=O)NNC(=O)OC.COC(=O)Nc1ccccc1NC(=O)OC.COC(=O)Oc1nn(C(=O)OC)c(=O)c2ccccc12	> 100 µM (inactive)	> 100 µM (inactive)	> 100 µM (inactive)	> 100 µM (inactive)	> 100 µM (inactive)	> 100 µM (inactive)	> 100 µM (inactive)	> 100 µM (inactive)	> 100 µM (inactive)	> 100 µM (inactive)	> 100 µM (inactive)	> 100 µM (inactive)	> 100 µM (inactive)	> 100 µM (inactive)	> 100 µM (inactive)	> 100 µM (inactive)	> 100 µM (inactive)	> 100 µM (inactive)	–
Nc1cc2c3c(cccc3c1)NC2=O	> 100 µM (inactive)	> 100 µM (inactive)	> 100 µM (inactive)	94 µM (inactive)	> 100 µM (inactive)	68.7 µM (inactive)	> 100 µM (inactive)	69.2 µM (inactive)	20.9 µM (inactive)	24 µM (inactive)	22.1 µM (inactive)	> 100 µM (inactive)	> 100 µM (inactive)	11.2 µM (inactive)	8.05 µM (inactive)	> 100 µM (inactive)	> 100 µM (inactive)	> 100 µM (inactive)	–
C[C@]12CC[C@H](O)CC1CCC[C@@H]2O (stereo not given in full)	> 100 µM (inactive)	> 100 µM (inactive)	> 100 µM (inactive)	> 100 µM (inactive)	–	–	> 100 µM (inactive)	> 100 µM (inactive)	> 100 µM (inactive)	> 100 µM (inactive)	> 100 µM (inactive)	> 100 µM (inactive)	> 100 µM (inactive)	> 100 µM (inactive)	> 100 µM (inactive)	> 100 µM (inactive)	> 100 µM (inactive)	> 100 µM (inactive)	–
Cc1ccc(C(=O)/C=C(\O)C(=O)NC23CC4CC(CC(C4)C2)C3)cc1	4.25 µM (inactive)	> 10 µM (inactive)	> 10 µM (inactive)	> 10 µM (inactive)	3.62 µM (inactive)	> 10 µM (inactive)	8.61 µM (inactive)	> 10 µM (inactive)	> 10 µM (inactive)	3.86 µM (inactive)	6.7 µM (inactive)	–	> 10 µM (inactive)	> 10 µM (inactive)	5.92 µM (inactive)	–	> 10 µM (inactive)	> 10 µM (inactive)	–
CC(C)[C@@H]1CC[C@@H](C)C[C@H]1OC(=O)/C=C1/C2C=CC(O2)C1C(=O)O[C@@H]1C[C@H](C)CC[C@H]1C(C)C (stereo not given in full)	30.5 µM (inactive)	> 100 µM (inactive)	> 100 µM (inactive)	> 100 µM (inactive)	41.7 µM (inactive)	> 100 µM (inactive)	> 100 µM (inactive)	> 100 µM (inactive)	> 100 µM (inactive)	43.8 µM (inactive)	> 100 µM (inactive)	> 100 µM (inactive)	46.2 µM (inactive)	> 100 µM (inactive)	45.5 µM (inactive)	–	> 100 µM (inactive)	> 100 µM (inactive)	–
CCCC1C(CC)C(NC)C(C#N)(C#N)C1(C#N)C#N (stereo not given)	20.4 µM (inactive)	28.2 µM (inactive)	12.8 µM (inactive)	> 100 µM (inactive)	16.9 µM (inactive)	16 µM (inactive)	17.1 µM (inactive)	34.8 µM (inactive)	25.2 µM (inactive)	24.1 µM (inactive)	15 µM (inactive)	15.1 µM (inactive)	16.7 µM (inactive)	16.5 µM (inactive)	13.1 µM (inactive)	18.9 µM (inactive)	30.2 µM (inactive)	20.7 µM (inactive)	–
N#CCCC(CC#N)N1CCN(CCO)CC1 (stereo not given)	> 100 µM (inactive)	> 100 µM (inactive)	> 100 µM (inactive)	> 100 µM (inactive)	> 100 µM (inactive)	–	> 100 µM (inactive)	> 100 µM (inactive)	> 100 µM (inactive)	> 100 µM (inactive)	> 100 µM (inactive)	> 100 µM (inactive)	> 100 µM (inactive)	> 100 µM (inactive)	> 100 µM (inactive)	–	> 100 µM (inactive)	> 100 µM (inactive)	–
O=C(O)CCC(NC(=O)c1ccc(CNc2nc3cc(C(F)(F)F)ccc3nc2C(=O)O)cc1)C(=O)O (stereo not given)	> 100 µM (inactive)	> 100 µM (inactive)	> 100 µM (inactive)	> 100 µM (inactive)	> 100 µM (inactive)	> 100 µM (inactive)	–	> 100 µM (inactive)	> 100 µM (inactive)	> 100 µM (inactive)	> 100 µM (inactive)	> 100 µM (inactive)	> 100 µM (inactive)	> 100 µM (inactive)	> 100 µM (inactive)	> 100 µM (inactive)	> 100 µM (inactive)	> 100 µM (inactive)	–
COC12c3ccccc3-c3ccccc3C1[C@@H](C(=O)O)[C@H]2C(=O)O (stereo not given in full)	> 10 µM (inactive)	> 10 µM (inactive)	> 10 µM (inactive)	> 10 µM (inactive)	> 10 µM (inactive)	> 10 µM (inactive)	> 10 µM (inactive)	–	> 10 µM (inactive)	> 10 µM (inactive)	> 10 µM (inactive)	–	> 10 µM (inactive)	> 10 µM (inactive)	> 10 µM (inactive)	> 10 µM (inactive)	> 10 µM (inactive)	> 10 µM (inactive)	–
COc1ccc2c(c1)/C(=C\c1cccc(/C=C3/C(=O)Nc4ccc(OC)cc43)n1)C(=O)N2	0.506 µM (active)	1.02 µM (active)	0.33 µM (active)	2.02 µM (inactive)	–	–	–	3.05 µM (inactive)	2.84 µM (inactive)	0.261 µM (active)	1.55 µM (inactive)	0.352 µM (active)	2.48 µM (inactive)	2.42 µM (inactive)	0.421 µM (active)	3.01 µM (inactive)	–	1.17 µM (inactive)	0.91 µM (active)
NCCCCC(NC(=O)OCc1ccccc1)C(=O)NCC(N)=O (stereo not given) (Cbz-[ξK]-Gly-NH2)	–	> 100 µM (inactive)	> 100 µM (inactive)	> 100 µM (inactive)	> 100 µM (inactive)	> 100 µM (inactive)	> 100 µM (inactive)	> 100 µM (inactive)	> 100 µM (inactive)	> 100 µM (inactive)	> 100 µM (inactive)	> 100 µM (inactive)	> 100 µM (inactive)	> 100 µM (inactive)	> 100 µM (inactive)	> 100 µM (inactive)	> 100 µM (inactive)	> 100 µM (inactive)	–
